{"source": "patent US20080226639A1", "about": "“Heparin Binding Peptide” (Enkan Pharmaceuticals A/S, priority 2004, published 2008)", "molecules": {"B1": {"name": "Ig 2 module of NCAM: recombinant Ig2 module of NCAM prepared in the yeast P. pastoris expression system (protein)", "chain": "KLMFKNAPTPQEFKEGEDAVIVCDVVSSLPPTIIWKHKGRDVILKKDVRFIVLSNNYLQIRGIKKTDEGTYRCEGRILARGEINFKDIQVIVNV"}}, "key": {"[1]": {"test_system": "rat cerebella granular neurons (CGNs)", "test": "Neurite outgrowth of CGNs in co-culture with fibroblasts with or without NCAM expression", "type": "cell-based", "conditions": "for neurite outgrowth of CGNs grown on fibroblasts without NCAM expression: CGNs on control fibroblasts without NCAM expression; for neurite outgrowth of CGNs grown on fibroblasts without NCAM expression / neurite outgrowth of CGNs grown on fibroblasts expressing NCAM: 24 h co-culture, different peptide concentrations (FIG. 1); for neurite outgrowth of CGNs grown on fibroblasts expressing NCAM: CGNs on monolayers of NCAM expressing fibroblasts", "experimental": "Genetically modified fibroblasts (mouse fibroblastoid L-cells) with or without NCAM expression are seeded in eight-well LabTek tissue culture chamber slides (Nunc, Roskilde, Denmark) at a density 7×10^4 of cells/well and maintained at 37° C. and 5% CO2 in DMEM with 10% HS, 100 U/ml penicillin and 100 μg/ml streptomycin. 24 h after plating the medium is removed and CGNs (10^4 cells/well) are seeded on monolayers of fibroblasts with or without NCAM expression in Neurobasal-A medium containing 100 U/ml penicillin, 100 μg/ml streptomycin, 1% glutamax and supplemented with B27, and grown in co-culture for 24 hours, afterwards neurite outgrowth is measured. CGNs are prepared from postnatal day 3-4 rat pups according to Rønn, L. C., Doherty, P., Holm, A., Berezin, V., Bock, E. (2000). J. Neurochem. 75(2):665-71."}, "[2]": {"test_system": "primary cerebellar granule neurons (CGNs)", "test": "Neurite outgrowth in primary culture of single CGNs", "type": "cell-based, rat", "conditions": "single CGNs (FIG. 3); for maximal effect on neurite outgrowth: peptide immobilized on tissue culture plastic, coating concentration of 5 μg/ml", "experimental": "Primary cerebellar granule neurons (CGNs) are prepared from postnatal day 3-4 rat pups according to Rønn, L. C., Doherty, P., Holm, A., Berezin, V., Bock, E. (2000). J. Neurochem. 75(2):665-71. Dissociated cerebella cells are grown at 37° C. and 5% CO2 in Neurobasal-A medium containing 20 mM Hepes, 100 U/ml penicillin, 100 μg/ml streptomycin, 1% glutamax and supplemented with B27 (all from Gibco BRL). For testing the effect of the peptides, CGNs are seeded in eight-well LabTech tissue chamber slides with a growth surface of Permanox plastic (Nunc) at a density of 10^4 cells/well in Neurobasal-A medium containing 100 U/ml penicillin, 100 μg/ml streptomycin, 1% glutamax and supplemented with B27. When treated with Heparinase III (1 U/ml), the enzyme is added to the culture medium immediately after plating. CGNs are treated with the enzyme for 1 h before addition of different concentrations (1 μg/ml, 5 μg/ml, and 20 μg/ml) of the peptides. After 24 h of culture, cells are fixed with paraformaldehyde, immunostained with primary mouse antibodies against CD90 (Thy-1) (1:200) (Caltag Laboratories, USA) (PC12-E2 cells) or GAP-43 (1:1000) (Chemicon, USA) (CGNs) and secondary Alexa Fluor®488 goat antibody against mouse IgG (1:1000) (Molecular Probes, Netherlands), and the length of neurites is measured by a stereological method as previously described (Ronn, L. C., Ralets, I., Hartz, B. P., Bech, M., Berezin, A., Berezin, V., Møller, A., Bock, E (2000). J Neurosci Methods. 100(1-2), 25-32)."}, "[3]": {"test_system": "fibroblasts with or without NCAM expression (mouse fibroblastoid L-cells)", "test": "Random cell motility of fibroblasts, time-lapse video-recording", "type": "cell-based", "conditions": "both NCAM expressing fibroblasts and control fibroblasts (FIG. 5)", "experimental": "For evaluation the effect of the peptides on cell motility, confluent cultures of fibroblasts with or without NCAM expression are dislodged with 0.5 mg/ml of trypsin and 0.75 mM EDTA in a modified Puck's saline (Gibco BRL), seeded in six-well tissue culture plates (Nunc) at a density of 4×10^3 cells/cm^2 and grown for 24 h at 37° C. and at 5% CO2.\nRandom cell motility was evaluated by use of time-lapse video-recording and image analysis as described previously (Walmod, et al. (1998). Cell Motil Cytoskeleton. 40(3), 220-37). […]\nEvaluation of cell motility and morphology is performed using the image processing software PRIMA. The positions of individual cells are determined by manual marking of the centers of the nuclei. […] The parameters of mean squared cell speed (Sτ), rate of diffusion (R), and locomotive index (LI) are determined according to Walmod, et al. (2000) (Methods Mol. Biology. 161, 59-83) as described below.\nThe displacement of a cell is the Euclidean distance between two points corresponding to the initial and final positions of the cell. […] The mean squared cell displacement of a cellular population after a given time (t1) of observation was calculated as […]\nwhere P is the persistence time in direction (23). The mean cell speed, Sτ, was calculated as the ratio of the mean displacement of cells (<dτ>) to the time interval τ. […]"}, "[4]": {"biological_target": "T1, recombinant Trk B receptor (Homo sapiens, UniProt Q16620)", "T1 construct": "purchased RD Systems (USA)", "T1 sequence (Q16620 32-822)": "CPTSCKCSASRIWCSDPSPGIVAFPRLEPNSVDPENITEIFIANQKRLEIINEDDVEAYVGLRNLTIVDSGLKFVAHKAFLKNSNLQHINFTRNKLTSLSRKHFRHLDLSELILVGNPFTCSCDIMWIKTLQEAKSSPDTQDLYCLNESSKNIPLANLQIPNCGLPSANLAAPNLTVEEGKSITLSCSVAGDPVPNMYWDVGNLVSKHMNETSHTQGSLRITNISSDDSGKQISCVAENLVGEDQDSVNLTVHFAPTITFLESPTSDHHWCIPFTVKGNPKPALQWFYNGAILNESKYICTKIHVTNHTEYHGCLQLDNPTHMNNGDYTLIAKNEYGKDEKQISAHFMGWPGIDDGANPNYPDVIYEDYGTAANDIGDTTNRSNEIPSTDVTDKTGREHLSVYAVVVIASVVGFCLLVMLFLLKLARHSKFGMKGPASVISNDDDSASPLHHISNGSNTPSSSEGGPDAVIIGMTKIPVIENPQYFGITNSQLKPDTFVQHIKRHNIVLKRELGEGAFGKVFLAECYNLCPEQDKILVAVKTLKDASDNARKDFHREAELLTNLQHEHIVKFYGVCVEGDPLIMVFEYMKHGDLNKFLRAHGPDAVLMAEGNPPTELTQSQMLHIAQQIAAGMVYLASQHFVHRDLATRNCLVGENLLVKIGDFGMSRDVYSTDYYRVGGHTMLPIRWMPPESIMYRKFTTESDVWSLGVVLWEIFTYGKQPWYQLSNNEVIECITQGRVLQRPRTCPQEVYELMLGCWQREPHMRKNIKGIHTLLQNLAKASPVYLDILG", "test": "BIAcore binding analysis to Trk B receptor", "conditions": "HBP or Ig2 module immobilized on sensor chip CM5, Trk B injected, 25° C., pH 7.4 (FIG. 7)", "experimental": "Recombinant the Ig2 module of NCAM was prepared using in the yeast P. pastoris expression system (Invitrogen, USA) as previously described (Kiselyov et al., Biol. Chem. 272, 10125-10134, 1997). Recombinant Trk B receptor was purchased from RD Systems (USA).\nBinding analysis was performed using a BIAcoreX instrument (Biosensor AB) at 25° C. using 10 mM sodium phosphate pH 7.4, 150 mM NaCl as running buffer. The flow-rate was 5 μl/min. Data were analysed by non-linear curve-fitting using the manufacture's software. The HBP or recombinant Ig 2 module of NCAM were immobilized on a sensor chip CM5 using amine coupling kit (Biosensor AB) as follows: 1) the two halves of the chip (designated Fc1 and Fc2) were activated by 20 μl activation solution; 2) the protein was immobilized on Fc1 using 12 μl 20 μg/ml protein in 10 mM sodium phosphate buffer pH 6.0; 3) Fc1 and Fc2 were blocked by 35 μl blocking solution. Binding of Trk B to the immobilized HBP or the Ig module II of NCAM was studied as follows: Trk B was injected simultaneously into Fc1 (with the immobilized HBP or Ig module II of NCAM) and Fc2 (with nothing immobilized). The curve representing unspecific binding of the compound to the surface of Fc2 was subtracted from the curve representing binding of Trk B to the immobilized protein (HBP or the Ig 2 module of NCAM) and the surface of Fc1. […]"}}, "note": "Residues, ends and D or L forms follow the SMILES beside them."}
{"molecule": "Cc1c[nH]c(/C=C2\\C(=O)Nc3ccccc32)c1CCC(=O)O", "note": "[SU5402, reference compound]", "values": [{"measurement": "effect on NCAM mediated neurite outgrowth in co-cultures of CGNs with NCAM expressing fibroblasts, in the presence of HBP", "setting": "[1]; NCAM expressing fibroblasts, HBP present (FIG. 2)", "value": "only partially inhibited"}, {"measurement": "effect on NCAM mediated neurite outgrowth in the absence of HBP", "setting": "[1]; NCAM expressing fibroblasts, no HBP (FIG. 2)", "value": "blocks NCAM mediated neurite outgrowth"}]}
{"molecule": "KGRDVILAKDVRVI (HBP mutant (peptide M)) [HBP mutant, Lys-161 and Phe-166 substituted for Ala and Val]", "values": [{"measurement": "maximal effect on neurite outgrowth", "setting": "[2]", "value": 400, "unit": "%"}, {"measurement": "cell motility: rate of diffusion (R), mean cell speed (Sτ), locomotive index (LI)", "setting": "[3]", "value": "inhibitory effect on the motile behaviour of fibroblasts similar to the effect of HBP"}, {"measurement": "neurite outgrowth of CGNs grown on fibroblasts without NCAM expression", "setting": "[1]", "value": "still stimulates neurite outgrowth"}, {"measurement": "neurite outgrowth of CGNs grown on fibroblasts expressing NCAM", "setting": "[1]", "value": "does not affect the neurite outgrowth response"}]}
{"molecule": "CC[C@H](C)[C@H](NC(=O)[C@H](Cc1ccccc1)NC(=O)[C@H](CCCNC(=N)N)NC(=O)[C@@H](NC(=O)[C@H](CC(=O)O)NC(=O)[C@H](CCCCN)NC(=O)[C@H](CCCCN)NC(=O)[C@H](CC(C)C)NC(=O)[C@@H](NC(=O)[C@@H](NC(=O)[C@H](CC(=O)O)NC(=O)[C@H](CCCNC(=N)N)NC(=O)CNC(=O)[C@@H](N)CCCCN)C(C)C)[C@@H](C)CC)C(C)C)C(N)=O", "note": "[HBP, KGRDVILKKDVRFI] (H-KGRDVILKKDVRFI-NH2; N-terminus and C-terminus assumed)", "values": [{"measurement": "change of the neurite outgrowth effect by treatment with heparinase III", "setting": "[2]; heparinase III 1 U/ml", "value": "reduced the effect of HBP"}, {"measurement": "maximal effect on neurite outgrowth", "setting": "[2]", "value": 680, "unit": "%"}, {"measurement": "cell motility: rate of diffusion (R), mean cell speed (Sτ), locomotive index (LI)", "setting": "[3]", "value": "clear inhibition of cell motility"}, {"measurement": "neurite outgrowth of CGNs grown on fibroblasts without NCAM expression", "setting": "[1]", "value": "in a dose-dependent manner increases neurite outgrowth"}, {"measurement": "neurite outgrowth of CGNs grown on fibroblasts expressing NCAM", "setting": "[1]", "value": "in a dose-dependent manner increases neurite outgrowth"}, {"measurement": "neuritogenic effect on CGNs grown on control fibroblasts under treatment with SU5402 (FGFR inhibitor)", "setting": "[1]; control fibroblasts without NCAM expression, plus SU5402 (FIG. 2)", "value": "is not blocked by treatment with SU5402"}]}
{"molecule": "B1", "values": [{"measurement": "Kd", "setting": "[4]", "value": "1 to 10", "unit": "nM"}]}
